Measured values published in patent publication EP1891948A1, “Treatment of neurological and neuropsychological disorders” (Probiodrug AG, priority 2000, dated 2002).

Test system: WistarF/Han (WF) rats
Assay: Response to novelty (open field test) after i.c.v. treatment
Assay type: in vivo
Experimental: Animals. Male WistarF/Han (WF) rats (Central Animal Laboratory, Hannover Medical School, Hannover, Germany, see http://www.mh-hannover.de/institut/tierlabor/wf.htm for details), weighing 350-390g, were housed in a sound-proof, temperature controlled (24.0±0.5°C) room under specific pathogen free conditions with a 12/12h dark/light cycle (lights on at 07.00 with illumination level of 80 Lux). Food (Altromin lab chow pellets) and tap water were available ad libitum. Under ketamine/xylasine (100/5 mg/kg, i.p.) anesthesia, the rats were fixed in a Kopf stereotaxic frame and implanted with cannulae (Plastic One, Inc., Roanoke, VA, USA) above the lateral ventricle. All research and animal care procedures were approved by the Lower Saxony district government (Hannover, Germany) and followed principles described in the European Community's Council Directive of 24 November 1986 (86/609/EEC).
Surgery and i.c.v. application. For surgery, rats were anesthetized and prepared with i.c.v. cannulaes (coordinates: A:-0.7mm caudal, L:1.4mm lateral to bregma; and V:3.2mm ventral to the skull surface; tooth bar +3.0 above ear bars) using standard stereotaxic procedures as described in detail elsewhere (von Hörsten et al., 1998a,b,c). […]
Response to novelty (Open field test). […] Spontaneous activity during a single continuous test session of 15min was recorded using a video path analyzer system (E61-21 Video Path Analyser system, Coulboum instruments, PA, U.S.A.). […] Furthermore, the total incidence of fecal boli was counted after each session and the incidence and duration (sec) of grooming behavior was simultaneously recorded from a video monitor by a person blind to the treatment of the animals (von Hörsten et al., 1998c).
Statistical analysis. For statistical analysis, behavioral raw data from every test minute were analyzed by two-way analyses of variance (ANOVA) for repeated measures (factors: treatment and time as a repeated measurement). Data obtained as totals from a session were analyzed by one-way (factor: treatment) ANOVA. […]

CCC(C)C(N)C(=O)N1CCSC1 (stereo not drawn) [isoleucyl thiazolidine]
dosage already effective on time spent close to the wall (Fig. 5): 50 pmol
time spent close to the wall (sum of four consecutive minutes of open field testing, Fig. 5): dose-dependent reduction
activity in the open field (distance traveled) (wide range of dosages (0.05nmol, 5nmol, 500nmol), 60 min before test, Fig. 4): no effect
